Laboratory results taken from publication PMC4651778 (Journal of structural biology, 2015).
Blank lines part the entries; values can stand above or below the molecule they belong to.

What was measured:
[1] = molecular target: Liver Receptor Homolog-1 (LRH-1, NR5A2) (Homo sapiens, UniProt O00482); test: crystal structure; type: binding
DAX-1 140-154 = molecular target: T1, DAX-1 140-154 (Homo sapiens, UniProt P51843); test: SPR
T1 chain: PRQGSILYSLLTSSK

Liver Receptor Homolog-1 (LRH-1, NR5A2), sequence (O00482 294-541): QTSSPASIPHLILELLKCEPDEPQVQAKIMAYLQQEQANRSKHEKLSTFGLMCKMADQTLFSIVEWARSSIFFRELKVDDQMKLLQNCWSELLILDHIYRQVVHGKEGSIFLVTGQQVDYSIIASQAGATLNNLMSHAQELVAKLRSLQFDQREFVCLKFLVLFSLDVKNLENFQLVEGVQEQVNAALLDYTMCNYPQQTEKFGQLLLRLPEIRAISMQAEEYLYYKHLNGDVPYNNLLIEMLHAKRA

Kd [1]: 120 ± 9 nM
Molecule: CCCCCCCCCCCCCCCC(=O)OC[C@@H](COP(=O)(O)O[C@H]1[C@H](O)[C@@H](OP(=O)(O)O)[C@H](OP(=O)(O)O)[C@@H](OP(=O)(O)O)[C@H]1O)OC(=O)CCCCCCCCCCCCCCC [PIP3]

Kd (DAX-1 140-154): 90 nM
B1: LRH-1 LBD (protein)
chain: SIPHLILELLKCEPDEPQVQAKIMAYLQQEQANRSKHEKLSTFGLMCKMADQTLFSIVEWARSSIFFRELKVDDQMKLLQNCWSELLILDHIYRQVVHGKEGSIFLVTGQQVDYSIIASQAGATLNNLMSHAQELVAKLRSLQFDQREFVCLKFLVLFSLDVKNLENFQLVEGVQEQVNAALLDYTMCNYPQQTEKFGQLLLRLPEIRAISMQAEEYLYYKHLNGDVPYNNLLIEMLHAK
